Assay results: patent publication US6087376A (priority 1998, dated 2000)
Entries after “also recorded” stand apart in the source; their conditions may differ.

How the values were obtained:
[1] = test system: rat striatal synaptosomes; conditions: cited from earlier work
[2] = test system: rat striatal slices preloaded with [3H]DA; test: Mecamylamine antagonism of lobeline-evoked [3H]overflow from rat striatal slices; assay type: cell-based; parameters: lobeline-evoked total [3H]overflow: unit not given here
[3] = target: central nicotinic receptors; conditions: read-out: Ki, displacement of [3H]nicotine binding; cited from earlier work
[4] = test system: locomotor activity in rats; conditions: rat, in vivo; cited from earlier work
anesthetized rats = conditions: urethane and pentobarbital anesthetized rats; cited from earlier work
[5] = cited from earlier work
[6] = test system: conditioned place preference in rats; conditions: rat, in vivo; cited from earlier work

## CN1[C@@H](CC(=O)c2ccccc2)CCC[C@H]1C[C@H](O)c1ccccc1 [Lobeline, 2-[G-(β-hydroxyphenethyl)-1-methyl-2-piperidyl]-acetophenone]
[1]
  DA release from superfused striatal synaptosomes: increase DA release
[2]; lobeline 0.1 μM, mecamylamine 0 μM
  lobeline-evoked total [3H]overflow: 0.6 ± 0.4
[2]; lobeline 0.1 μM, mecamylamine 1 μM
  lobeline-evoked total [3H]overflow: 0.9 ± 0.5
[2]; lobeline 0.1 μM, mecamylamine 10 μM
  lobeline-evoked total [3H]overflow: 0.8 ± 0.3
[2]; lobeline 0.1 μM, mecamylamine 100 μM
  lobeline-evoked total [3H]overflow: 0.5 ± 0.4
[2]; lobeline 1 μM, mecamylamine 0 μM
  lobeline-evoked total [3H]overflow: 2.0 ± 0.6
[2]; lobeline 1 μM, mecamylamine 1 μM
  lobeline-evoked total [3H]overflow: 4.9 ± 1.8
[2]; lobeline 1 μM, mecamylamine 10 μM
  lobeline-evoked total [3H]overflow: 2.4 ± 0.5
[2]; lobeline 1 μM, mecamylamine 100 μM
  lobeline-evoked total [3H]overflow: 0.7 ± 0.1
[2]; lobeline 3 μM, mecamylamine 0 μM
  lobeline-evoked total [3H]overflow: 10.3 ± 0.8
[2]; lobeline 3 μM, mecamylamine 1 μM
  lobeline-evoked total [3H]overflow: 10.8 ± 1.4
[2]; lobeline 3 μM, mecamylamine 10 μM
  lobeline-evoked total [3H]overflow: 8.2 ± 1.5
[2]; lobeline 3 μM, mecamylamine 100 μM
  lobeline-evoked total [3H]overflow: 6.5 ± 0.9
[2]; lobeline 10 μM, mecamylamine 0 μM
  lobeline-evoked total [3H]overflow: 31.9 ± 2.2
[2]; lobeline 10 μM, mecamylamine 1 μM
  lobeline-evoked total [3H]overflow: 32.5 ± 1.0
[2]; lobeline 10 μM, mecamylamine 10 μM
  lobeline-evoked total [3H]overflow: 41.0 ± 6.2
[2]; lobeline 10 μM, mecamylamine 100 μM
  lobeline-evoked total [3H]overflow: 20.0 ± 2.0
[2]; lobeline 100 μM, mecamylamine 0 μM
  lobeline-evoked total [3H]overflow: 185.0 ± 12
[2]; lobeline 100 μM, mecamylamine 1 μM
  lobeline-evoked total [3H]overflow: 180.0 ± 47.6
[2]; lobeline 100 μM, mecamylamine 10 μM
  lobeline-evoked total [3H]overflow: 179.5 ± 12.2
[2]; lobeline 100 μM, mecamylamine 100 μM
  lobeline-evoked total [3H]overflow: 160.4 ± 30.2
[2]; mecamylamine 1-100 μM, lobeline 0.1-100 μM
  inhibition of lobeline-evoked [3H]overflow by mecamylamine: not inhibited by mecamylamine
[3]
  Ki: 5 to 30 nM
[4]
  locomotor activity: does not increase locomotor activity
Anesthetized rats
  cardiovascular effects: bradycardia and hypotension
[5]
  pKa: 8.3
[6]
  conditioned place preference: does not produce conditioned place preference; also recorded: does not increase locomotor activity (Stolerman et al., 1995) or produce conditioned place preference
